According to US7473682B2, “Angiogenic peptides and uses thereof” (Ramot at Tel Aviv University Ltd., priority 2003, dated 2009):

How the values were obtained:
HIF-1α = test: Real time PCR gene expression in MVECs, HIF-1α; type: cell-based; parameters: key: increased (+); non-increased (−); settings: 1 ng/ml peptide
Experimental: (§1) Real Time PCR—MVECs from passage 3 were incubated for 24 hours in EBM-MV supplement-free medium (starving media). Following starvation, 1 ng/ml of synthetic peptides LT, QF, SP, TR, YR, and VL and 10 ng/ml of VEGF were added to the plates. Following 1.5 or 6 hours of incubation, total RNA was extracted using TRIsol reagent (Invitrogen Life Technologies, Carlsbad Calif., USA) and 0.8 μg of the extracted RNA was used as a template for reverse transcription (Invitrogen) using random primers (SuperScript III First-Strand Synthesis System for RT-PCR (hvitrogen, Carlsbad Calif., USA) according to the manufacturer's instructions. Resulting cDNAs were subjected to real time PCR amplification using the ABI prism 7000 Sequence Detection System (Applied Biosystems, Foster City, Calif., USA). Oligonucleotide primers were designed using Primer Express Software (Applied Biosystems, Foster City, Calif., USA) according the translated region of VEGF-A (Accession No:NM_003376), VEGF-C (Accession No:NM_005429), KDR (Accession No:NM_002253), FLT-1 (Accession No:NM_002019), HIF-α (Accession No:HSU22431), and GAPDH (Accession No:NM_002046) and are listed in Table 6, hereinbelow. Briefly, a reaction mixture of 20 μl consisting of DDW, oligonucleotide primers (500 nM), cDNA (3 μl), and SYBR Green PCR master kit (Applied Biosystems, Foster City, Calif., USA) was subjected to an amplification program of 15 seconds at 95° C., and 60 seconds at 60° C. for 40 cycles. Results were analyzed using the Sequence Detector Software Version 1 (Applied Biosystenis).
(§2) Peptides effect on gene expression in MVECs—The effect of the synthetic peptides on the expression in MVECs of selected genes (VEGF-A, VEGF-C, KDR, FLT-1 and HIF-1α) related to the VEGF pathway (a major pathway that participated in angiogenic process) was tested. Synthetic peptides were added at 1 ng/ml for 1.5 and 6 hours. After incubation with peptide, RNA was extracted from MVECs and Real Time PCR was performed. Gene expression was calculated as peptide/control (cells without peptide treatment) ratio.

[1] = system: ears of nude mice and Balb/C mice; test: In vivo angiogenesis in a mouse-ear model; settings: for Number of blood vessels in the ears of injected mice (photographs): 10 μg peptide, subcutaneous injection into ear; for Number of blood vessels: 10 μg/ear, 5 days after inoculation; for Peptide/PBS = ratio between the No. of blood vessels in the peptide-injected ear and in the PBS-injected ear: mouse ears, contralateral ear PBS
Experimental: In Wivo angiogenesis in a mouse-ear model—Ear angiogenesis studies were a modification of an approach described previously (Pettersson, 2000). […] Contralateral ears were injected only with PBS. […] Two days after peptide inoculation, angiogenic effect of peptides could be observed.
Histological sections—Histological sections of the mouse-ears injected with the angiogenic peptides were performed by fixing tissues in 4% buffered formalin. Sections were embedded in paraffin blocks sectioned in 4 μm thick layers and stained with hematoxolin-eosin.

VEGF-C = test: Real time PCR gene expression in MVECs, VEGF-C; type: cell-based; parameters: key: increased (+); non-increased (−); settings: 1 ng/ml peptide
Experimental: as §1, §2

[2] = system: dermal microvascular endothelial cells (MVECs); test: Proliferation of dermal microvascular endothelial cells (MVECs) in the presence of synthetic peptides; type: cell-based
Experimental: Proliferation of dermal microvascular endothelial cells (MVECs) in the presence of synthetic peptides—MVECs were incubated with synthetic peptides (LT, SP, and YR) as described above for HUVECs (ECs), except that the MVECs were seeded in EBM-MV medium containing supplements (Cambrex BioWhittaker Cell Biology Products) and MVECs from passage 4 (rather than 3) were used for proliferation experiments.
Synthetic peptides induced proliferation or migration after and under hypoxia treatment—Cell proliferation or migration assays were performed as described in Example 3, hereinabove, except that cells were divided to 3 groups: control cells, cells after exposure to hypoxia conditions or cells proliferating under hypoxia conditions. For cell proliferation assays, ECs were incubated with QF, LT and SP and MVECs were incubated with LT, SP, and YR. For cell migration assays, ECs were incubated with EBM-2 and MVECs were incubated with EBM-MV media.

MVECs = test: MVEC migration assay with synthetic peptides; type: cell-based; settings: 5 hours; for Increase in MVECs migration, peptides as chemoattractants: 10 ng/ml
Experimental: MVEC migration was evaluated as described above except that MVECs from passage 3 were incubated in EBM-MV SFM. […] The presence of migratory cells was detected using the fluorescent ELISA reader at 480/520 nm (Fluostar BMG Lab Teck) as described in Example 2, hereinabove. […]

mouse ischemic hind limb [3] = test: Mouse ischemic hind limb model, blood perfusion (Laser Doppler Imager); type: in vivo; settings: 14 and 19 days following peptide injection; for The blood perfusion ratio (in percentages) of the ischemic vs. control limbs, Mean: 10 μg
Experimental: (§3) Mouse ischemic hind limb model—Ischemia was created in the mouse left hind limb by ligation of the femoral artery. The right hind limb served as control. A day after the operation each of the peptides was injected into one site close to the ligation and one site distal to the ligation. Each mouse was treated with each of the peptides in a total amount of 10 μg.
Blood perfusion in ischemic mice—The percent of blood perfusion was measured using a Laser Doppler Imager (PeriMed, Sweden) at 14 and 19 days after peptides injections. The average percent perfusion of each limb was computed and expressed as the ischemic (left)/control (right) blood perfusion ratio.

FLT-1 = test: Real time PCR gene expression in MVECs, FLT-1; type: cell-based; parameters: key: increased (+); non-increased (−); settings: 1 ng/ml peptide
Experimental: as §1, §2

mouse ischemic hind limb [4] = test: Mouse ischemic hind limb model, physiological observations (ladder climbing); type: in vivo; parameters: key: 1 = walk and climb ... 4 = walk with difficulty, cannot climb; settings: mean score of 10 mice, 10 μg; for Physiological score (ability to climb a ladder) Day 1: 1 = walk and climb ... 4 = walk with difficulties and cannot climb, day 1 post operation; for Physiological score (ability to climb a ladder) Day 4 / Physiological score (ability to climb a ladder) Day 7 / Physiological score (ability to climb a ladder) Day 10: scale 1-4; for Physiological score (ability to climb a ladder) Day 4: day 4 post operation; for Physiological score (ability to climb a ladder) Day 7: day 7 post operation; for Physiological score (ability to climb a ladder) Day 10: day 10 post operation
Experimental: as §3
Physiological observations—Ischemic mice were evaluated for their ability to climb a ladder on day 1, 4, 7, and 10-post operation. The scoring system was as follows: 1—walk and climb; 2—walk and climb with some difficulty, 3—walk and cannot climb the ladder; 4—walk with difficulties and cannot climb the ladder.

VEGF-A = test: Real time PCR gene expression in MVECs, VEGF-A; type: cell-based; parameters: key: increased (+); non-increased (−); settings: 1 ng/ml peptide
Experimental: as §1, §2

KDR = test: Real time PCR gene expression in MVECs, KDR; type: cell-based; parameters: key: increased (+); non-increased (−); settings: 1 ng/ml peptide, 1.5 hours
Experimental: as §1, §2

| Sequence | HIF Expression after 1.5 hours (HIF-1α) | HIF Expression after 6 hours (HIF-1α) | Number of blood vessels in the ears of injected mice (photographs) [1] | Number of blood vessels [1] | Peptide/PBS = ratio between the No. of blood vessels in the peptide-injected ear and in the PBS-injected ear [1] | VEGF-C Expression after 1.5 hours (VEGF-C) | VEGF-C Expression after 6 hours (VEGF-C) | [^3H]-Thymidine uptake / proliferation of MVECs after and under hypoxia [2] | Increase in MVECs migration, peptides as chemoattractants (MVECs) [fold] | The blood perfusion ratio (in percentages) of the ischemic vs. control limbs, Mean (mouse ischemic hind limb [3]) [percentages] | FLT-1 Expression after 1.5 hours (FLT-1) | Physiological score (ability to climb a ladder) Day 1 (mouse ischemic hind limb [4]) | Physiological score (ability to climb a ladder) Day 4 (mouse ischemic hind limb [4]) | Physiological score (ability to climb a ladder) Day 7 (mouse ischemic hind limb [4]) | Physiological score (ability to climb a ladder) Day 10 (mouse ischemic hind limb [4]) | VEGF-A Expression after 1.5 hours (VEGF-A) | KDR Expression after 1.5 hours (KDR) | other results |
| --- | --- | --- | --- | --- | --- | --- | --- | --- | --- | --- | --- | --- | --- | --- | --- | --- | --- | --- |
| LLADTTHHRPWT (Phage displayed peptide) [LT] | − | − | increased number of blood vessels | 18 | 3 | + | + | significant dose-dependent increase | 3.5 | 78.275 | + | 3.07 | 2.25 | 1.6 | 1.2 | + | − | Increase of MVECs proliferation after hypoxia ([2]; after hypoxia, 1 ng/ml): 1.7 fold; Increase of MVECs proliferation response ([2]; normoxia, 1 ng/ml): 1.8 fold; [^3H]-Thymidine uptake in MVECs ([2]; normoxia, 0.1-100 ng/ml, 24 hours): significant increase; Increase of MVECs proliferation under hypoxia ([2]; under hypoxia, 10 ng/ml): 1.7 fold |
| QPWLEQAYYSTF (Phage displayed peptide) [QF] | + | − | increased number of blood vessels | 21 | 0.9 | + | + | did not show increase proliferation | 2.4 | 112.222 | + | 2.83 | 2 | 1.6 | 1.2 | + | + | MVECs migration, direct activation by peptides (MVECs; 1 ng/ml): 2.3 folds; Percent of blood perfusion ratio, ischemic/control limb (significance) (mouse ischemic hind limb [3]): significant increase; FLT-1 Expression after 6 hours (FLT-1; 6 hours): −; VEGF-A Expression after 6 hours (VEGF-A; 6 hours): − |
